Source: patent publication US20170044372A1, “CELL TRACKING REAGENTS AND THEIR METHODS OF USE” (LIFE TECHNOLOGIIES CORPORATION, priority 2014, published 2017)

Test system: HeLa cells
Experiment: CYQUANT Direct cytotoxicity / cell viability assay
Type: cell-based
Details: 96 well plate, labeled at 10 μM for 30 mins at 37° C. in LCIS, assayed on days 1, 2 and 3, compared to DMSO alone
Method: FIG. 2: Lack of cytotoxicity of Compound 10, as measured by the CYQUANT Direct (Thermo Fisher Scientific) method. Fluorescence on the Y-axis is proportional to cell population viability. HeLa cells plated in a 96 well plate were labeled with CELLTRACKER Red, Compound 10, or DMSO in Live Cell Imaging Solution (LCIS) at 10 μM concentration for 30 mins at 37° C. The LCIS was then aspirated from cells and complete media added for an overnight incubation. The following day (Day 1) cells were assayed for cytotoxicity using the CYQUANT Direct assay (Thermo Fisher Scientific).
A549, HeLa and U-2 OS cells were plated in a 24-well plate at a concentration of 2000 cells/well. Compound 10 was added at a final concentration of 10 μM in Live Cell Imaging Solution (Life Technologies Corporation, Carlsbad, Calif.) and incubated for 30-60 min at 37° C. Cells were washed in dPBS and the cell media was added. Cells were scanned using the scan routine on an EVOS FL Auto microscope (Thermo Fisher Scientific) for 10% of the middle of the well. The same scan routine was used on Days 2, 3 and 4 of growth. Cell viability was assessed using CYQUANT Direct (Thermo Fisher Scientific) using the same scan routine as described above. The results in HeLa cells can be seen in FIGS. 1 and 2.

For `CN(C)c1ccc2c(-c3ccc(C(=O)ON4C(=O)CCC4=O)cc3C(=O)O)c3ccc(=[N+](C)C)cc-3oc2c1` [Compound 10], the “cytotoxicity as measured by the CYQUANT Direct method (fluorescence proportional to cell population viability)” value was “no cytotoxicity”.
